Measurements published in PubChem BioAssay (NCI).
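Five concentrations, 48 hours, 96-well plates. GI50 is the concentration that inhibits growth by half. At the TGI there is no net growth.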

What was measured:
Assay in all cases: growth of human tumour cells (NCI), 48 h
[1] = tested on: 786-0 renal
[2] = tested on: SN12C renal
[3] = tested on: HS 578T breast
[4] = tested on: ACHN renal
[5] = tested on: M14 melanoma
[6] = tested on: CCRF-CEM leukemia
[7] = tested on: SK-MEL-5 melanoma
[8] = tested on: SF-295 CNS
[9] = tested on: HCT-15 colon
[10] = tested on: OVCAR-3 ovarian

SMILES: Cc1ccc(C(=O)N2C/C(=C/c3ccccc3)C(=O)/C(=C/c3ccccc3)C2)cc1
- GI50 [1]: 3.52 µM
- TGI [1]: 15.2 µM
- GI50 [2]: 7.34 µM
- TGI [2]: > 100 µM
- GI50 [3]: 4.48 µM
- TGI [3]: 50.7 µM
- GI50 [4]: 5.04 µM
- TGI [4]: > 67.1 µM
- GI50 [5]: 3.85 µM
- TGI [5]: > 92.1 µM
- GI50 [6]: 2.23 µM
- TGI [6]: > 100 µM
- GI50 [7]: 3.3 µM
- TGI [7]: > 31.6 µM
- GI50 [8]: 5.36 µM
- TGI [8]: > 100 µM
- GI50 [9]: 3.13 µM
- TGI [9]: > 100 µM
- GI50 [10]: 6.8 µM
- TGI [10]: > 100 µM

SMILES: CN1CC[C@]23c4c5ccc(O)c4OC2c2[nH]ncc2C[C@H]3[C@H]1C5 (stereo not given in full)
- TGI [1]: > 100 µM
- TGI [2]: > 100 µM
- TGI [3]: > 100 µM
- TGI [4]: > 100 µM
- TGI [5]: > 100 µM
- TGI [6]: > 100 µM
- TGI [7]: > 100 µM
- TGI [8]: > 100 µM
- TGI [9]: > 100 µM
- TGI [10]: > 100 µM

SMILES: CN(c1ccc(NC(=O)NCCN2CCOCC2)cc1)c1ccnc(Nc2ccc(CS(C)(=O)=O)cc2)n1
- GI50 [1]: > 25 µM
- TGI [1]: > 25 µM
- GI50 [2]: > 25 µM
- TGI [2]: > 25 µM
- GI50 [3]: > 25 µM
- TGI [3]: > 25 µM
- GI50 [4]: > 25 µM
- TGI [4]: > 25 µM
- GI50 [5]: > 25 µM
- TGI [5]: > 25 µM
- GI50 [6]: > 25 µM
- TGI [6]: > 25 µM
- GI50 [7]: > 25 µM
- TGI [7]: > 25 µM
- GI50 [8]: > 25 µM
- TGI [8]: > 25 µM
- GI50 [9]: > 25 µM
- TGI [9]: > 25 µM
- GI50 [10]: > 25 µM
- TGI [10]: > 25 µM

SMILES: CCOC(=O)C1=C(C)N(Cc2ccc(Cl)cc2Cl)[C@]2(C#N)C(O)=C(Cl)C(Cl)=C(O)[C@]12C#N
- GI50 [1]: > 100 µM
- TGI [1]: > 100 µM
- GI50 [2]: 73.9 µM
- TGI [2]: > 100 µM
- GI50 [3]: > 100 µM
- TGI [3]: > 100 µM
- GI50 [4]: > 100 µM
- TGI [4]: > 100 µM
- GI50 [5]: > 100 µM
- TGI [5]: > 100 µM
- GI50 [6]: 18.4 µM
- TGI [6]: 37.3 µM
- GI50 [7]: > 100 µM
- TGI [7]: > 100 µM
- GI50 [8]: > 100 µM
- TGI [8]: > 100 µM
- GI50 [9]: 62 µM
- TGI [9]: > 100 µM
- GI50 [10]: 46.7 µM
- TGI [10]: > 100 µM

SMILES: CCOC(=O)c1cc2cc(OCc3ccccc3)ccc2[nH]1
- GI50 [1]: > 100 µM
- TGI [1]: > 100 µM
- GI50 [2]: > 100 µM
- TGI [2]: > 100 µM
- GI50 [3]: 49.6 µM
- TGI [3]: > 100 µM
- GI50 [4]: > 100 µM
- TGI [4]: > 100 µM
- GI50 [5]: > 100 µM
- TGI [5]: > 100 µM
- GI50 [6]: > 100 µM
- TGI [6]: > 100 µM
- GI50 [7]: > 100 µM
- TGI [7]: > 100 µM
- GI50 [8]: > 100 µM
- TGI [8]: > 100 µM
- GI50 [9]: > 100 µM
- TGI [9]: > 100 µM
- GI50 [10]: > 100 µM
- TGI [10]: > 100 µM

SMILES: CCc1ccc(C2=NN(c3ccc(S(C)(=O)=O)cc3)C(=O)CC2)cc1
- GI50 [1]: 4.39 µM
- TGI [1]: 54.4 µM
- GI50 [2]: 7.34 µM
- TGI [2]: > 100 µM
- GI50 [3]: 0.977 µM
- TGI [3]: 7.77 µM
- GI50 [4]: 8.48 µM
- TGI [4]: > 100 µM
- GI50 [5]: 0.639 µM
- TGI [5]: > 100 µM
- GI50 [6]: 1.23 µM
- TGI [6]: > 21.6 µM
- GI50 [7]: 1.64 µM
- TGI [7]: 11.1 µM
- GI50 [8]: 0.904 µM
- TGI [8]: 8.54 µM
- GI50 [9]: 1.38 µM
- TGI [9]: > 100 µM
- GI50 [10]: 0.385 µM
- TGI [10]: 2.36 µM

SMILES: NCC(Cc1ccccc1)P(=O)(O)O (stereo not given)
- TGI [1]: > 100 µM
- TGI [2]: > 100 µM
- TGI [3]: > 100 µM
- TGI [4]: > 100 µM
- TGI [5]: > 100 µM
- TGI [6]: > 100 µM
- TGI [7]: > 100 µM
- TGI [8]: > 100 µM
- TGI [9]: > 100 µM
- TGI [10]: > 100 µM

SMILES: CC1(C)N=C(N)N=C(N)N1c1ccc(OCCCCNC(=O)Nc2cccc(S(=O)(=O)F)c2)c(Cl)c1
- GI50 [1]: 2.75 µM
- TGI [1]: > 100 µM
- GI50 [2]: 0.577 µM
- TGI [2]: > 100 µM
- GI50 [3]: 19.3 µM
- TGI [3]: > 100 µM
- GI50 [4]: 22.3 µM
- TGI [4]: > 100 µM
- GI50 [5]: 3.96 µM
- TGI [5]: > 100 µM
- GI50 [6]: 0.95 µM
- TGI [6]: > 100 µM
- GI50 [7]: 1.11 µM
- TGI [7]: 23.7 µM
- GI50 [8]: 5.59 µM
- TGI [8]: > 100 µM
- GI50 [9]: 10.6 µM
- TGI [9]: > 100 µM
- GI50 [10]: 6.89 µM
- TGI [10]: > 100 µM

SMILES: O=C(O)Cn1ccc(=O)c2c([N+](=O)[O-])cccc21
- TGI [1]: > 100 µM
- TGI [2]: > 100 µM
- TGI [3]: > 100 µM
- TGI [4]: > 100 µM
- TGI [5]: > 100 µM
- TGI [6]: > 100 µM
- TGI [7]: > 100 µM
- TGI [8]: > 100 µM
- TGI [9]: > 100 µM
- TGI [10]: > 100 µM

SMILES: COc1ncc2cc1NS(=O)(=O)c1cccc(c1)C(=O)NCC1=CC=C(S1)c1ncnc3c1SC2=C3C
- GI50 [1]: 0.31 µM
- TGI [1]: 2.74 µM
- GI50 [2]: 0.395 µM
- TGI [2]: 18.3 µM
- GI50 [3]: 0.0247 µM
- TGI [3]: 0.355 µM
- GI50 [4]: 0.592 µM
- TGI [4]: 8.33 µM
- GI50 [5]: 0.0992 µM
- TGI [5]: 1.89 µM
- GI50 [6]: 0.153 µM
- TGI [6]: 1.16 µM
- GI50 [7]: 0.0369 µM
- TGI [7]: 0.151 µM
- GI50 [8]: 0.0972 µM
- TGI [8]: 2.61 µM
- GI50 [9]: 0.254 µM
- TGI [9]: 1.36 µM
- GI50 [10]: 0.115 µM
- TGI [10]: 0.431 µM

SMILES: CCN(CCNc1ccc(C)c2sc3cc(Cl)ccc3c(=O)c12)CC(C)(C)O
- GI50 [1]: 5.13 µM
- TGI [1]: 17.7 µM
- GI50 [2]: 20.8 µM
- TGI [2]: > 100 µM
- GI50 [3]: 5.01 µM
- TGI [3]: 21.2 µM
- GI50 [4]: 12.7 µM
- TGI [4]: 65 µM
- GI50 [5]: 1.95 µM
- TGI [5]: 4.01 µM
- GI50 [6]: 7.5 µM
- TGI [6]: 61 µM
- GI50 [7]: 1.83 µM
- TGI [7]: 3.49 µM
- GI50 [8]: 1.86 µM
- TGI [8]: 4.34 µM
- GI50 [9]: 3.3 µM
- TGI [9]: 12 µM
- GI50 [10]: 18.6 µM
- TGI [10]: 62.9 µM

SMILES: CCC1=C(c2ccc(OC)cc2)CC[C@]2(CCNC2=O)[C@@H]1C
- TGI [1]: > 100 µM
- TGI [2]: > 96.3 µM
- TGI [3]: 76.2 µM
- TGI [4]: 66.8 µM
- TGI [5]: 62.7 µM
- TGI [6]: 60.8 µM
- TGI [7]: 31.1 µM
- TGI [8]: > 100 µM
- TGI [9]: > 88.8 µM
- TGI [10]: 61.4 µM

SMILES: CC/C(=C(/c1ccc(/C=C/C(=O)O)cc1)c1ccc2[nH]ncc2c1)c1ccc(F)cc1Cl
- GI50 [1]: 7.83 µM
- TGI [1]: 21.1 µM
- GI50 [2]: 14.7 µM
- TGI [2]: 44.6 µM
- GI50 [3]: 8.63 µM
- TGI [3]: 38.7 µM
- GI50 [4]: 9.16 µM
- TGI [4]: 24.3 µM
- GI50 [5]: 7.84 µM
- TGI [5]: 27.1 µM
- GI50 [6]: 8.37 µM
- TGI [6]: 30.7 µM
- GI50 [7]: 8.35 µM
- TGI [7]: 21.4 µM
- GI50 [8]: 7.81 µM
- TGI [8]: 21.1 µM
- GI50 [9]: 7.45 µM
- TGI [9]: 22 µM
- GI50 [10]: 11.8 µM
- TGI [10]: 24.9 µM

SMILES: CC(C)C/C(=N\NC(=O)c1ccncc1)c1cc(Cl)ccc1O
- GI50 [1]: 0.412 µM
- TGI [1]: 11.8 µM
- GI50 [2]: 0.619 µM
- TGI [2]: > 52.5 µM
- GI50 [3]: 14.8 µM
- TGI [3]: > 87.1 µM
- GI50 [4]: 0.157 µM
- TGI [4]: > 41.1 µM
- GI50 [5]: 0.627 µM
- TGI [5]: 13.3 µM
- GI50 [6]: 0.0864 µM
- TGI [6]: > 58.5 µM
- GI50 [7]: 0.562 µM
- TGI [7]: 2.53 µM
- GI50 [8]: 0.256 µM
- TGI [8]: 13.2 µM
- GI50 [9]: 0.0938 µM
- TGI [9]: 98.9 µM
- GI50 [10]: 0.204 µM
- TGI [10]: 5.24 µM
